Test results as given in patent US20200079766A1, “MONOCYCLIC OGA INHIBITOR COMPOUNDS” (Janssen Pharmaceutica NV, priority 2016, published 2020).
Where a name gives a salt, the structure may show the parent alone.

Experiments:
[1] = biological target: T1, recombinant human Meningioma Expressed Antigen 5 (MGEA5), also referred to as O-GlcNAcase (OGA) (Homo sapiens, UniProt O60502); test: OGA biochemical assay: inhibition of FM-GlcNAc hydrolysis, fluorescence; protocol A (10 nM OGA, 1 h) or protocol B (2 nM OGA, 6 h); settings: Enzymatic protocol B (2 nM OGA, 6 h); for IC50: read-out: Enzymatic hOGA, pIC50 (converted)
T1 construct: Full length OGA enzyme was purchased at OriGene (cat # TP322411); purchased OriGene TP322411
T1 sequence (O60502 1-916): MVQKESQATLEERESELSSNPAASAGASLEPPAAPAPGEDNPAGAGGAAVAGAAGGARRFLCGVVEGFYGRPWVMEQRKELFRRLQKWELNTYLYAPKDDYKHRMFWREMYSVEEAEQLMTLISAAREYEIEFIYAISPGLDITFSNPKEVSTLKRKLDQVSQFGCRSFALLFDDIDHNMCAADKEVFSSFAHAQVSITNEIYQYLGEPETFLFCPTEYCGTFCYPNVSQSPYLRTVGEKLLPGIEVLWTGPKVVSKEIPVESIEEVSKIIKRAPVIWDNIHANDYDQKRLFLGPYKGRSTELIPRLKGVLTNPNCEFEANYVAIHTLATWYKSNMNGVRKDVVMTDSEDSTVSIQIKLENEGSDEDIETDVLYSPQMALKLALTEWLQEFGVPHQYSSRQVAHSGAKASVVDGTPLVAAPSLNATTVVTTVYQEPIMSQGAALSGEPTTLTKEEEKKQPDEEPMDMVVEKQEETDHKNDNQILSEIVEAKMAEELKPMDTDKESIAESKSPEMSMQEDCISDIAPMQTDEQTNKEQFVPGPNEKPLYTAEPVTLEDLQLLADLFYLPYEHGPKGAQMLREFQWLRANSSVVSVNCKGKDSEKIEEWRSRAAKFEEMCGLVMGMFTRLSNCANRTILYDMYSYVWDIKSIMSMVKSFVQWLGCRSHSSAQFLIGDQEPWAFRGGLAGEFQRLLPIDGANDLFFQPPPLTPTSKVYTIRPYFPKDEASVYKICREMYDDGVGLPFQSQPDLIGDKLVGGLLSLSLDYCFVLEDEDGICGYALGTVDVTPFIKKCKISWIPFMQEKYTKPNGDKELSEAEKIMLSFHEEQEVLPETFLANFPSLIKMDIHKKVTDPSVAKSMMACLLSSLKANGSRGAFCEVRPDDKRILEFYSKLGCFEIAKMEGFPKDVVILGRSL
In short: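 Full-length human OGA in 200 mM citrate/phosphate pH 7.2 with 0.005% Tween-20, compound pre-incubated 60 min at RT, then 100 uM FM-GlcNAc (final); 10 nM enzyme for 1 h or 2 nM for 6 h at RT. Stopped with pH 11.0 carbonate; fluorescein read at ex 485/em 538 nm. IC50 and Hill coefficient from curve fit.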

[2] = tested on: OGA in HEK293 cells inducible for P301L mutant human Tau (isoform 2N4R); test: OGA cellular assay: immunocytochemical detection of O-GlcNAcylated proteins (CTD110.6 antibody) after 6 h incubation; format: cell-based; settings: for Emax / EC50: Homo sapiens, HEK293, 6 h; for Emax / Cellular Emax (%): maximum = Thiamet G 200 uM; for EC50: read-out: Cellular hOGA, pEC50 (converted)
In short: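 Low-glucose medium, 6 h compound exposure at 0.2% DMSO; cells PFA-fixed and O-GlcNAc ICC signal imaged at 488 nm (9 fields/well), Hoechst nuclei counted for toxicity. Thiamet G 200 uM on each plate as maximum; IC50 from non-linear regression.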

| Emax [1] | IC50 [1] | melting point | Enzymatic Emax (%) [1] | Enzymatic hOGA; pIC50 [1] | SMILES | Emax [2] | EC50 [2] | Cellular hOGA; pEC50 [2] | Cellular Emax (%) [2] |
| --- | --- | --- | --- | --- | --- | --- | --- | --- | --- |
| – | – | 125.9 °C | – | – | CC(=O)Nc1ncc(CN2CCC(COc3cc(C)nc(C)c3)C2)s1 (racemic) [Product 89] | – | – | – | – |
| 100% | 2.51 nM | – | – | – | CC(=O)Nc1ncc(CN2CCC[C@H](Cc3cc(F)ncc3C)C2)s1 [compound 122] | 97.2% | 4.17 nM | – | – |
| 98.7% | 93.3 nM | – | – | – | CC(=O)Nc1ncc(CN2CCCC(Oc3cc(C)cc(C)c3)C2)s1 (stereo not shown) [compound 13, reference compound] | 92.1% | 316 nM | – | – |
| 100% | 64.6 nM | – | – | – | CC(=O)Nc1ncc(CN2CCC[C@H](Oc3ccnc(C)c3)C2)s1 (racemic) [compound 17] | 96.2% | 389 nM | – | – |
| 102% | 1.05 nM | – | – | – | CC(=O)Nc1ncc(CN2CCC[C@H](Cc3cc(C)nc(C)c3)C2)s1 [compound 28] | 106% | 4.47 nM | – | – |
| – | – | 118.26 °C | – | – | CC(=O)Nc1ncc(CN2CCC(OCc3cc(C)nc(C)c3)C2)s1 (racemic) [Product 81] | – | – | – | – |
| 102% | 12 nM | – | – | – | Cc1cc([C@H]2CCCN([C@@H](C)c3ccc4sc(C)nc4c3)C2)cc(C)n1 [compound 117] | 99.5% | 97.7 nM | – | – |
| – | – | – | 102% | 8.21 | CC(=O)Nc1ncc(CN2CCC(Cc3cnc(C#N)cn3)C2)s1 (stereo not shown) [compound 91] | – | – | 7.28 | 102.1% |
| 102% | 21.4 nM | – | – | – | COc1cc(C[C@H]2CCN(Cc3cnc(NC(C)=O)s3)C2)cc(C(F)(F)F)n1 [compound 143] | 86.2% | 60.3 nM | – | – |
| – | – | – | 102.9% | 7.34 | CC(=O)Nc1ncc(CN2CCC(Cc3cnc(C(F)(F)F)cn3)C2)s1 (stereo not shown) [compound 64] | – | – | 7.04 | 89.3% |
| – | – | – | 101.3% | 7.30 | CC(=O)Nc1ncc(CN2CCC(Cc3cc(C(F)(F)F)cc(C)n3)C2)s1 (stereo not shown) [compound 60] | – | – | 7.03 | 87.4% |
| 96.9% | 40.7 nM | – | – | – | CC(=O)Nc1ncc(CN2CC[C@H](Cc3nnc(C)cc3C)C2)s1 [compound 47] | 61.6% | 288 nM | – | – |
| 99% | 282 nM | – | – | – | Cc1cc(C[C@H]2CCCN(Cc3ccc4scnc4c3)C2)cc(C)n1 [compound 147] | 33.2% | > 1000 nM | – | – |

The next lines start with the molecule.

| SMILES | Emax [1] | IC50 [1] | melting point | Enzymatic Emax (%) [1] | Enzymatic hOGA; pIC50 [1] | Emax [2] | EC50 [2] | Cellular hOGA; pEC50 [2] | Cellular Emax (%) [2] |
| --- | --- | --- | --- | --- | --- | --- | --- | --- | --- |
| CC(=O)Nc1ncc(CN2CCC(Cc3ncccc3F)C2)s1 (stereo not shown) [compound 39] | 99.2% | 60.3 nM | 150.08 °C | – | – | – | – | – | – |
| CC(=O)Nc1ncc(CN2CCC(Cc3ccc(C)c(C)n3)C2)s1 (stereo not shown) [compound 38] | 99.7% | 19.5 nM | 107.53 °C | – | – | 90.3% | 39.8 nM | – | – |
| CC(=O)Nc1ncc(CN2CCC(Cc3cncnc3C)C2)s1 (racemic) [Product 103] | – | – | 147.16 °C | – | – | – | – | – | – |
| CC(=O)Nc1ncc(CN2CCC(Cc3cc(F)ncc3C)C2)s1 (stereo not shown) [Product 106] | – | – | 140.36 °C | – | – | – | – | – | – |
| CC(=O)Nc1ncc(CN2CCC(Cc3cncc(C)n3)C2)s1 (stereo not shown) [compound 108] | 103% | 33.1 nM | 118.3 °C | – | – | 78.9% | 155 nM | – | – |
| Cc1cc(CC2CCCN(C(C)c3ccc4sc(C)nc4c3)C2)cc(C)n1 (single isomer, unassigned) (as salt: HCl) [compound 118] | – | – | 270.1 °C | – | – | – | – | – | – |
| CC(=O)Nc1ncc(CN2CCC(Cc3nccc(C)c3F)C2)s1 (stereo not shown) [compound 43] | 102% | 9.12 nM | 129.25 °C | – | – | 87% | 79.4 nM | – | – |
| CC(=O)Nc1ncc(CN2CCCC(Cc3cc(C)nc(C)c3)C2)s1 (stereo not shown) [compound 27] | 99.6% | 2.45 nM | – | – | – | 118% | 5.25 nM | – | – |
| CC(=O)Nc1ncc(CN2CC[C@H](Cc3cnc(C(=O)NC(C)(C)C)cn3)C2)s1 [compound 92] | 99.7% | 22.4 nM | – | – | – | 92.6% | 81.3 nM | – | – |
| CC(=O)Nc1ncc(CN2CCCC(c3cc(C)nc(C)c3)C2)s1 (single isomer, unassigned) [compound 130] | 103% | 9.12 nM | – | – | – | 99% | 13.2 nM | – | – |
| CC(=O)Nc1ncc(CN2CCC(Cc3cnc(C)c(C)n3)C2)s1 (stereo not shown) [compound 86] | – | – | – | 101.3% | 8.49 | – | – | 7.4 | 83.5% |
| CC(=O)Nc1ncc(CN2CC[C@@H](Cc3cc(C)nc(F)c3)C2)s1 [compound 111] | 103% | 30.9 nM | – | – | – | 97.4% | 52.5 nM | – | – |
| CC(=O)Nc1ncc(CN2CCC[C@H](Cc3cncc(C)n3)C2)s1 [compound 127] | 102% | 2.88 nM | – | – | – | 88.5% | 27.5 nM | – | – |
| CC(=O)Nc1ncc(CN2CCC(Cc3cc(C)nc(C)c3)C2)s1 (stereo not shown) [compound 30] | 124% | 4.68 nM | – | – | – | 99.2% | 13.2 nM | – | – |
| Cc1cc(CC2CCCN(C(C)c3ccc4c(c3)OCCO4)C2)cc(C)n1 (racemic) (as salt: HCl) [compound 142] | – | – | 256.05 °C | – | – | – | – | – | – |
| CC(=O)Nc1ncc(CN2CCC(Cc3cc(F)ncc3C)C2)s1 (stereo not shown) [compound 106] | 101% | 21.4 nM | – | – | – | 86.9% | 41.7 nM | – | – |
| CC(=O)Nc1ncc(CN2CCCC(c3ccnc(C)c3)C2)s1 (stereo not shown) [compound 6] | 101% | 27.5 nM | – | – | – | 98.7% | 27.5 nM | – | – |
| CC(=O)Nc1ncc(CN2CCC(Cc3cnc(C(N)=O)cn3)C2)s1 (stereo not shown) [compound 105] | 102% | 19.5 nM | – | – | – | 93.3% | 100 nM | – | – |
| CC(=O)Nc1ncc(CN2CCCC(Nc3ccnc(C)c3)C2)s1 (racemic) [compound 155] | 101% | 6.03 nM | – | – | – | 84.2% | 14.8 nM | – | – |
| CC(=O)Nc1ncc(CN2CC[C@H](Cc3ccc(C(F)F)cn3)C2)s1 [compound 50] | 99.4% | 77.6 nM | – | – | – | 87.4% | 55 nM | – | – |
| CC(=O)Nc1ncc([C@@H](C)N2CCC[C@H](COc3cc(C)nc(C)c3)C2)s1 (single isomer, unassigned) [compound 136] | 100% | 95.5 nM | – | – | – | 70.6% | 479 nM | – | – |
| Cc1cc(O[C@@H]2CCCN(Cc3ccc4nccnc4c3)C2)cc(C)n1 [compound 18] | 97.9% | 417 nM | – | – | – | 12.4% | > 10000 nM | – | – |
| CC(=O)Nc1ncc(CN2CCCC(Cc3cc(C)nc(C)n3)C2)s1 (stereo not shown) [compound 24] | 101% | 5.5 nM | – | – | – | 111% | 32.4 nM | – | – |
| Cc1cc(N[C@@H]2CCCN(C(C)c3ccc4nccnc4c3)C2)cc(C)n1 (stereo partly shown) [compound 11] | 101% | 25.7 nM | – | – | – | 65.2% | 4270 nM | – | – |
| CC(=O)Nc1ncc(CN2CC[C@H](Cc3ccnc(C)c3)C2)s1 [compound 63] | – | – | – | 101.9% | 7.90 | – | – | 7.46 | 90.1% |
| Cc1cc(C2CCCN(C(C)c3ccc4nccnc4c3)C2)cc(C(F)(F)F)n1 (stereo not shown) [compound 144] | 101% | 41.7 nM | – | – | – | 42.8% | > 1000 nM | – | – |
| COc1nccnc1CC1CCN(Cc2cnc(NC(C)=O)s2)C1 (stereo not shown) [compound 67] | – | – | – | 100.9% | 7.70 | – | – | 6.92 | 84.5% |
| CC(=O)Nc1ncc(CN2CC[C@H](Cc3cnc(C)nc3)C2)s1 [compound 62] | – | – | – | 102.4% | 7.93 | – | – | 7.20 | 81.8% |
